A word on the TGI: it is the concentration at which net growth stops.

SMILES strings stand for the structures.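 Growth conditions: 96-well plates. Treatment: test compound, 48 hours, 5 concentrations. Analysis: linear interpolation between bracketing concentrations; unreached endpoints set to highest concentration. TGI denotes the concentration required for complete inhibition of growth.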 Bounds are passed on as bounds.

The source of these data is PubChem BioAssay (NCI).

Some test systems named below: CCRF-CEM leukemia; U251 CNS; PC-3 prostate; UACC-257 melanoma; SF-268 CNS; MALME-3M melanoma; KM12 colon; 786-0 renal; MDA-N; DU-145 prostate; BT-549 breast; COLO 205 colon; UO-31 renal; RXF 393 renal; IGROV1 ovarian; NCI-H226 lung; SK-MEL-28 melanoma; MOLT-4 leukemia; TK-10 renal; CAKI-1 renal.
Holding throughout (experiment): DTP human tumour cell line panel, 48 h

For `CCOC(=O)c1c(NC(=O)c2cccs2)sc2c1CCCC2`, the TGI with CCRF-CEM leukemia was greater than 100 µM; in the test on U251 CNS, greater than 91.9 µM; in the test on PC-3 prostate, greater than 100 µM; in the test with UACC-257 melanoma, greater than 100 µM; with SF-268 CNS it was 73.6 µM; in the test on MALME-3M melanoma, greater than 74.5 µM. Moreover, the TGI with KM12 colon, in the test with 786-0 renal, in the test on MDA-N, in the test with DU-145 prostate, with BT-549 breast and with COLO 205 colon was greater than 100 µM throughout. Moreover, the TGI with UO-31 renal was greater than 100 µM; in the test with RXF 393 renal, 30.8 µM; with IGROV1 ovarian, greater than 100 µM; in the test on NCI-H226 lung, greater than 100 µM; in the test with SK-MEL-28 melanoma, greater than 100 µM; in the test on MOLT-4 leukemia, greater than 100 µM. Also, the TGI was greater than 86.1 µM in the test on TK-10 renal and greater than 100 µM with CAKI-1 renal.

For `CCN(CC)CCC(=O)/C=C/c1ccccc1`, the TGI in the test with CCRF-CEM leukemia is greater than 47.2 µM; with U251 CNS it was 25.6 µM; in the test on PC-3 prostate, 27.3 µM; in the test with UACC-257 melanoma, 31.6 µM; with SF-268 CNS, 15.6 µM; in the test on MALME-3M melanoma it was 33.1 µM. Also, the TGI in the test with KM12 colon was 18.5 µM; in the test with 786-0 renal it was 7.62 µM; with MDA-N it was 26.4 µM; with DU-145 prostate, greater than 73.9 µM; with BT-549 breast, 21.9 µM; in the test on COLO 205 colon, 18 µM. The TGI in the test with UO-31 renal came out at 25.8 µM; with RXF 393 renal, 21.5 µM; in the test with IGROV1 ovarian, 35.5 µM; in the test with NCI-H226 lung it was 44.9 µM; in the test on SK-MEL-28 melanoma it was 30.8 µM; in the test on MOLT-4 leukemia, 24.2 µM. In addition, the TGI worked out at 32.3 µM in the test on TK-10 renal and 14.1 µM in the test with CAKI-1 renal.

With `CC1=CC(C)C/C=C/C2C3OC3(C)C(C)C3C(Cc4c[nH]c5ccccc45)NC(=O)C23C(=O)C=CC(=O)C1O` (stereo not given), the TGI in the test with CCRF-CEM leukemia turned out to be 3.02 µM; with U251 CNS, 43.2 µM; with PC-3 prostate, 30.1 µM; in the test with UACC-257 melanoma it was 16.4 µM; with SF-268 CNS it was 40.7 µM; with MALME-3M melanoma, 4.19 µM. Moreover, the TGI turned out to be 30 µM with KM12 colon; 10.8 µM in the test on 786-0 renal; 22.6 µM in the test on MDA-N; 27.6 µM in the test on DU-145 prostate; 10.3 µM in the test on BT-549 breast; 2 µM in the test on COLO 205 colon. The TGI was found to be 6.05 µM in the test with UO-31 renal; 2.94 µM with RXF 393 renal; 24.6 µM in the test on IGROV1 ovarian; 32 µM in the test with NCI-H226 lung; 38.2 µM in the test with SK-MEL-28 melanoma; 5.2 µM in the test with MOLT-4 leukemia. The TGI with TK-10 renal is 3.39 µM; in the test on CAKI-1 renal, 2.94 µM.

Turning to `CN=c1nc2sc3c(c2c(NC(=S)NC)s1)CCCC3`, the TGI with CCRF-CEM leukemia is greater than 100 µM; in the test with U251 CNS it was greater than 100 µM; in the test with PC-3 prostate, greater than 100 µM; in the test with UACC-257 melanoma, greater than 100 µM; in the test on SF-268 CNS, 87.5 µM; in the test with MALME-3M melanoma, greater than 100 µM. Besides, the TGI in the test on KM12 colon, in the test with 786-0 renal, in the test on MDA-N, in the test with DU-145 prostate, in the test on BT-549 breast and in the test with COLO 205 colon was greater than 100 µM in each case. The TGI in the test with UO-31 renal was greater than 100 µM; in the test on RXF 393 renal it was 82.9 µM; in the test with IGROV1 ovarian, greater than 100 µM; with NCI-H226 lung, greater than 100 µM; in the test on SK-MEL-28 melanoma it was greater than 100 µM; in the test on MOLT-4 leukemia, greater than 100 µM. The TGI in the test on TK-10 renal and with CAKI-1 renal was greater than 100 µM throughout.

Turning to `N=C1/C(=C/c2ccc(F)cc2)C(=O)N=C2SC=NN12`, the TGI in the test with CCRF-CEM leukemia, with U251 CNS, in the test with PC-3 prostate, in the test on UACC-257 melanoma, with SF-268 CNS and in the test on MALME-3M melanoma was greater than 100 µM each time. Besides, the TGI with KM12 colon, with 786-0 renal, in the test with MDA-N, with DU-145 prostate, in the test on BT-549 breast and in the test on COLO 205 colon was greater than 100 µM throughout. Also, the TGI in the test with UO-31 renal, with RXF 393 renal, in the test on IGROV1 ovarian, in the test on NCI-H226 lung, with SK-MEL-28 melanoma and in the test on MOLT-4 leukemia was greater than 100 µM each time. Besides, the TGI in the test with TK-10 renal and in the test on CAKI-1 renal was greater than 100 µM each time.

Turning to `Nc1ccc(-c2nc3cc(F)ccc3s2)cc1Cl`, the TGI with CCRF-CEM leukemia is greater than 100 µM; in the test on U251 CNS it was 55.4 µM; with PC-3 prostate, greater than 100 µM; with UACC-257 melanoma it was greater than 100 µM; in the test on SF-268 CNS, greater than 100 µM; in the test on MALME-3M melanoma, 67.8 µM. Also, the TGI in the test with KM12 colon was greater than 100 µM; with 786-0 renal, greater than 100 µM; with MDA-N it was greater than 100 µM; in the test with DU-145 prostate it was greater than 100 µM; in the test with BT-549 breast it was greater than 63.2 µM; in the test with COLO 205 colon, greater than 100 µM. Besides, the TGI in the test with UO-31 renal is greater than 100 µM; with RXF 393 renal, greater than 100 µM; with IGROV1 ovarian, 42.9 µM; in the test on NCI-H226 lung, 5.04 µM; in the test with SK-MEL-28 melanoma, greater than 100 µM; in the test with MOLT-4 leukemia, greater than 100 µM. Besides, the values for the TGI in the test with TK-10 renal and with CAKI-1 renal were 0.176 µM and greater than 100 µM, respectively.

Regarding `C=C1C(=O)C[C@H]2C(=C)C(=O)O[C@@H]2C2C1CC[C@@]2(C)O` (stereo not given in full), the TGI in the test on CCRF-CEM leukemia is greater than 100 µM; in the test on U251 CNS, greater than 100 µM; with PC-3 prostate, greater than 100 µM; in the test on UACC-257 melanoma, 56.1 µM; in the test on SF-268 CNS, greater than 100 µM; in the test with MALME-3M melanoma, 44.9 µM. Moreover, the TGI with KM12 colon was greater than 100 µM; with 786-0 renal, 77.7 µM; in the test with MDA-N it was 77.8 µM; in the test with DU-145 prostate, greater than 100 µM; in the test with BT-549 breast, 44 µM; in the test with COLO 205 colon, 54.8 µM. Also, the TGI in the test on UO-31 renal is 74.2 µM; in the test with RXF 393 renal, 43.9 µM; in the test on IGROV1 ovarian it was greater than 100 µM; with NCI-H226 lung, 54.3 µM; with SK-MEL-28 melanoma it was 85.5 µM; with MOLT-4 leukemia, greater than 100 µM. In addition, the TGI was 41.4 µM with TK-10 renal and 40.3 µM with CAKI-1 renal.

As for `CC1(c2cccs2)CC(c2cccs2)=C(C#N)C(=C(C#N)C#N)N1` (stereo not given), the TGI in the test with CCRF-CEM leukemia was determined as 27.9 µM; in the test on U251 CNS it was 31 µM; with PC-3 prostate it was 29.8 µM; in the test on UACC-257 melanoma, 32.7 µM; with SF-268 CNS, 35.9 µM; in the test with MALME-3M melanoma, 35 µM. Moreover, the TGI with KM12 colon was 32.3 µM; with 786-0 renal, 35 µM; in the test on MDA-N, 31.1 µM; in the test on DU-145 prostate, 28.9 µM; in the test with BT-549 breast, 57.5 µM; with COLO 205 colon it was 39.9 µM. Moreover, the TGI was 34.8 µM in the test with UO-31 renal; 38.7 µM in the test with RXF 393 renal; 33.4 µM in the test on IGROV1 ovarian; 90 µM with NCI-H226 lung; 50.2 µM with SK-MEL-28 melanoma; greater than 100 µM in the test with MOLT-4 leukemia. Besides, the results for the TGI with TK-10 renal and with CAKI-1 renal were 36.5 µM and 37 µM, respectively.

For the molecule `C[N+](CCCl)(CCCl)Cc1cccc2cccc([N+](=O)[O-])c12`, the TGI in the test with CCRF-CEM leukemia, with U251 CNS, in the test with PC-3 prostate, in the test on UACC-257 melanoma, with SF-268 CNS and in the test with MALME-3M melanoma was greater than 100 µM each time. Further, the TGI in the test with KM12 colon, with 786-0 renal, in the test on MDA-N, in the test with DU-145 prostate, with BT-549 breast and with COLO 205 colon was greater than 100 µM each time. In addition, the TGI with UO-31 renal, in the test on RXF 393 renal, in the test on IGROV1 ovarian, in the test on NCI-H226 lung, with SK-MEL-28 melanoma and in the test with MOLT-4 leukemia was greater than 100 µM in each case. The TGI in the test on TK-10 renal and in the test on CAKI-1 renal was greater than 100 µM in each case.

For `O=C(O)CC(CC(=O)O)C(=O)O`, the TGI in the test on CCRF-CEM leukemia, in the test on U251 CNS, in the test on PC-3 prostate, with UACC-257 melanoma, in the test on SF-268 CNS and with MALME-3M melanoma was greater than 100 µM throughout. For the same molecule, the TGI in the test with KM12 colon, in the test on 786-0 renal, in the test on MDA-N, in the test on DU-145 prostate, in the test with BT-549 breast and in the test with COLO 205 colon was greater than 100 µM throughout. Further, the TGI in the test on UO-31 renal, with RXF 393 renal, in the test on IGROV1 ovarian, in the test on NCI-H226 lung, in the test on SK-MEL-28 melanoma and in the test with MOLT-4 leukemia was greater than 100 µM each time. In addition, the TGI in the test with TK-10 renal and with CAKI-1 renal was greater than 100 µM throughout.

For `COCC1OC(Sc2ccccc2)C(O)C(OC)C1OC` (stereo not given), the TGI with CCRF-CEM leukemia, in the test with U251 CNS, in the test with PC-3 prostate, with UACC-257 melanoma, in the test on SF-268 CNS and in the test on MALME-3M melanoma was greater than 100 µM each time. For the same molecule, the TGI in the test on KM12 colon, with 786-0 renal, with MDA-N, in the test with DU-145 prostate, in the test on BT-549 breast and in the test with COLO 205 colon was greater than 100 µM throughout. Further, the TGI in the test on UO-31 renal, with RXF 393 renal, in the test with IGROV1 ovarian, with NCI-H226 lung, with SK-MEL-28 melanoma and in the test on MOLT-4 leukemia was greater than 100 µM throughout. The TGI in the test with TK-10 renal and in the test on CAKI-1 renal was greater than 100 µM in each case.
